# Assay results: article PMC7763843, “Cytochrome P450 Expression and Chemical Metabolic Activity before Full Liver Development in Zebrafish” (Pharmaceuticals, 2020)
# Structures can show the parent of a compound that is named as a salt. Where two headings read alike, the source gives them in different places.
# Key:
# [1] = tested on: whole zebrafish embryo or larva; experiment: Content of test compound per one whole zebrafish embryo or larva (Ce) every 24 hpf; type: in vivo, Danio rerio; conditions: mean ± SD, n = 3; for Ce per one whole embryo or larva: 120 hpf, exposure from 5 hpf (caffeine 10 mg/L, diclofenac 3.2 mg/L, testosterone 3.0 mg/L), maximum for caffeine
# Method: The chorions of embryos were removed with forceps under a microscope before sampling for the Ce measurements. The dechorionated embryos (24 hpf) or the larvae (from 48 hpf onwards) were individually transferred through four beakers (for about 10 s per beaker) containing 500 mL of fresh dechlorinated tap water to remove chemical residues on the body surface. After that step, the embryos or larvae were homogenized with a silicone pestle in a 1.5 mL sampling tube containing a mixed solvent of the same composition as each liquid chromatography eluent to extract the test compound. The dechorionated embryos or the larvae were homogenized to extract the test compound. […] The supernatant was collected in a volumetric flask. The extraction procedure was performed twice, and the supernatants from the two batches were mixed and brought up to a volume of 1 mL with the mixed solvent of the same composition as each liquid chromatography eluent to extract the test compound.
# Data were acquired in positive ion mode by using multiple reaction monitoring (MRM).
# [2] = tested on: whole zebrafish embryo or larva; experiment: Contents of test compound metabolites per whole zebrafish embryo or larva; conditions: for Ce of caffeine per whole embryo or larva: metabolite experiment (Figure 6A), exposure to caffeine 10 mg/L
# Method: (§3) To calculate the content of each compound per one whole zebrafish embryo or larva (i.e., the Ce), we first determined the maximum test solution concentrations that caused neither morphological nor behavioral abnormalities during exposure. […] Beginning at 5 hpf, normal embryos were exposed to the test solution (>1 mL/embryo) in a glass container. The plastic lid of the container was kept closed, and the embryos and larvae were maintained for up to 120 hpf at 28 ± 1 °C on a 14-h light–10-h dark cycle.
# Then, the mixture was centrifuged at 20,000× g for 15 min at 10 °C with a refrigerated centrifuge (CR21N, Hitachi Koki). The supernatant was collected in a sampling tube. The extraction procedure was performed twice. The supernatants of two batches were mixed and the mixture was evaporated completely by nitrogen gas spraying. A solution (500 μL) of the same composition as the eluent for each compound was added to the tube, and then the solution was filtered through a Millex-LG membrane filter with a 0.2-μm pore size (Merck). The filtrate was double diluted with a solution of the same composition as the eluent for each compound, and the resulting solution was mixed to prepare the sample for measurement. For 1,7-dimethylxanthine, to standardize the content of the larval matrix, a mixture of larvae in the control or the vehicle control was added to each standard solution in a stepwise concentration to create each calibration curve.
# Each 5 μL sample was eluted in a mobile phase of methanol: water = 2:8 at a flow rate of 0.20 mL/min. 1,7-dimethylxanthine was monitored by using an ESI probe. Data were acquired in positive ion mode by using MRM. […]
# A calibration curve for each target substance (regression equation by using the least-squares method: Y = aX + b, where Y is the analytical response and X is the concentration of the target substance) was made by using four or five concentrations of standard solution. […] Then, all target substances were quantified by using the absolute calibration curve method and one concentration of standard solution. […]
# [3] = tested on: zebrafish embryos and larvae; experiment: Maximum test solution concentration causing neither morphological nor behavioral abnormalities; type: in vivo, Danio rerio; conditions: exposure from 5 hpf up to 120 hpf
# Method: as §3
# [4] = parameters: method as in PMID 11448232, PMID 7714751; conditions: cited from earlier work
# cyp3a65 mRNA = conditions: in vivo
# Method: (§1) Embryos were dechorionized, except in the case of those exposed to TCDD due to high transparency. […] 1,7-Dimethylxanthine, 4′-OHDF, 5-OHDF, and 6β-hydroxytestosterone were obtained from Sigma-Aldrich. DMSO was purchased from Nacalai Tesque (Kyoto, Japan).
# (§2) Whole-mount in situ hybridization was performed as described previously. Paraformaldehyde-fixed embryos were hybridized with digoxigenin-incorporated antisense RNA probes of CYP subtypes at 65 °C overnight (DIG (digoxigenin) RNA Labeling Kit, Sigma-Aldrich). To obtain the CYP probes, CYP DNAs were amplified by PCR reaction with KOD FX Neo enzyme solution (Toyobo) with the primer sets listed in Table S2. This was followed by subcloning to pTAC2 TA vector (BioDynamics, Tokyo, Japan) and in vitro transcription with SP6 RNA polymerase (New England Biolabs, Ipswich, MA, USA). Following hybridization and washing, the embryos were incubated with anti-DIG antibody conjugated with alkaline phosphatase (Sigma-Aldrich) at 4 °C overnight. The color reaction was performed by incubation in BM Purple substrate or Fast Red (Sigma-Aldrich).
# cyp2r1 mRNA = tested on: cyp2r1 mRNA
# Method: as §1, §2
# [5] = cited from earlier work; for Detection of metabolite of midazolam (neither has been detected): adult zebrafish liver microsomes or embryonic or larval microsomes or homogenates at up to 7 dpf
# [6] = tested on: cyp2n13, 2r1, 2y3, and 3a65; experiment: qPCR of CYP subtypes in 55 hpf larvae after inducer exposure; conditions: 100 µM
# Excerpt: as §1
# zebrafish = conditions: cited from earlier work
# cyp2n13 mRNA = conditions: 55 hpf larvae; exposure from 30 hpf; 100 µM rifampicin or phenobarbital
# Method: as §1, §2
# cyp2y3 mRNA = conditions: 55 hpf larvae; exposure from 30 hpf; 100 µM rifampicin or phenobarbital
# Method: as §1, §2
# [7] = 55 hpf larvae, exposure from 30 hpf, 1.0 ppb TCDD, 100 µM phenobarbital or rifampicin
structure (smiles),measurement,setting,value
Cn1c(=O)c2c(ncn2C)n(C)c1=O [caffeine],Ce per one whole embryo or larva,[1],4.54 ± 0.10 ng
same,Ce of caffeine per whole embryo or larva,[2]; 50 hpf,2.69 ± 0.14 ng
same,Ce of caffeine per whole embryo or larva,[2]; 120 hpf,5.15 ± 0.31 ng
same,Maximum test solution concentration that caused neither morphological nor behavioral abnormalities during exposure,[3],10 mg/L
same,log Kow,[4],−0.07
"Clc1cc2c(cc1Cl)Oc1cc(Cl)c(Cl)cc1O2 [TCDD, 2,3,7,8-tetrachlorodibenzo-p-dioxin]",cyp3a65 mRNA signal by in situ hybridization,cyp3a65 mRNA,signal appeared in some
same,cyp2r1 mRNA signal by in situ hybridization (location similar to liver),cyp2r1 mRNA; [7],Positive signals
OCc1ncc2n1-c1ccc(Cl)cc1C(c1ccccc1F)=NC2 [1-hydroxymidazolam],Detection of metabolite of midazolam (neither has been detected),[5],Neither
C[C@]12CC[C@H]3[C@@H](CCC4=CC(=O)CC[C@@]43C)[C@@H]1CC[C@@H]2O [testosterone],Ce per embryo or larva (maximum value),"[1]; 48 hpf, exposure to 3.0 mg/L from 5 hpf",12.8 ± 1.14 ng
same,Ce per one whole embryo or larva,[1],1.43 ± 0.11 ng
same,Maximum test solution concentration that caused neither morphological nor behavioral abnormalities during exposure,[3],3.0 mg/L
O=c1cc(-c2ccccc2)oc2ccc3ccccc3c12 [β-naphthoflavone],"Significant induction of cyp2n13, 2r1, 2y3, and 3a65 by qPCR",[6],not recognized
COc1ccc2c(c1)[C@]13CCCC[C@@H]1[C@H](C2)N(C)CC3 [dextromethorphan],Detection of metabolites of the compound,"[5]; microsomes from whole embryos or larvae at 5, 24, 48, 72, 96, or 120 hpf",no metabolites of this compound have been detected
Cc1ncc2n1-c1ccc(Cl)cc1C(c1ccccc1F)=NC2O (stereo not drawn) [4-hydroxymidazolam],Detection of metabolite of midazolam (neither has been detected),[5],Neither
Nc1c2c(nc3ccccc13)CCCC2 [tacrine],Detection of human CYP1A2-mediated metabolites,"zebrafish; zebrafish, in vivo",detected
"O=C(O)Cc1ccccc1Nc1c(Cl)cccc1Cl [diclofenac, diclofenac sodium salt]",Ce per embryo or larva (maximum value),"[1]; 72 hpf, exposure to 3.2 mg/L from 5 hpf",1.64 ± 0.15 ng
same,Maximum test solution concentration that caused neither morphological nor behavioral abnormalities during exposure,[3],3.2 mg/L
same,log Kow,[4]; pH 7.4,1.13
CCC1(c2ccccc2)C(=O)NC(=O)NC1=O [phenobarbital],cyp2N13 mRNA expression by in situ hybridization,cyp2n13 mRNA,detected
same,cyp2y3 mRNA by in situ hybridization (liver and intestine locations),cyp2y3 mRNA,detectable
same,cyp2r1 mRNA signal by in situ hybridization (location similar to liver),cyp2r1 mRNA; in vivo,Positive signals
COc1ccc2c(c1)[C@@]13CCCC[C@H]1[C@@H](C2)NCC3 [3-Methoxymorphinan],Detection of metabolite of dextromethorphan,[5]; adult zebrafish liver microsomes,detected
CCOc1ccc(NC(C)=O)cc1 [phenacetin],Detection of human CYP1A2-mediated metabolites,zebrafish; zebrafish 7 dpf incubated with the drug,detected
C[C@]12CC[C@H]3[C@@H](C[C@@H](O)C4=CC(=O)CC[C@@]43C)[C@@H]1CC[C@@H]2O [6β-hydroxytestosterone],Detection of metabolite in embryos or larvae,"[2]; 50 or 120 hpf, during exposure to testosterone",not detected
same,Detection of metabolite of testosterone,zebrafish; zebrafish larvae at 7 dpf or zebrafish adults,detected
CO[C@H]1/C=C/O[C@@]2(C)Oc3c(C)c(O)c4c(O)c(c(/C=N/N5CCN(C)CC5)c(O)c4c3C2=O)NC(=O)/C(C)=C\C=C\[C@H](C)[C@H](O)[C@@H](C)[C@@H](O)[C@@H](C)[C@H](OC(C)=O)[C@@H]1C [rifampicin],cyp2N13 mRNA expression by in situ hybridization,cyp2n13 mRNA,detected
same,cyp2r1 mRNA signal by in situ hybridization (location similar to liver),cyp2r1 mRNA; [7],Positive signals
